Reference: patent US9567318B2, “Substituted pyrimidine compounds and uses thereof” (Memorial Sloan-Kettering Cancer Center, priority 2009, dated 2017)

Experiments:
Type in all cases: cell-based, human
[1] = tested on: HER2, Raf-1, Akt, Hsp70 in SKBr3 cells; experiment: Western blotting of Hsp90 onco-client proteins and Hsp70 in SKBr3 cells
Description: FIG. 3. Testing strategy for the discovery of YK5. a, b) SKBr3 cells were treated for 24 h with the indicated concentrations of inhibitors and cells were lysed for western blot (WB) analysis. β-actin was used as loading control. The data are consistent with those obtained from multiple repeat experiments (n≧3). c) The ability of the indicated inhibitors to compete with GM-Cy3B for Hsp90 binding in SKBr3 cell extracts was examined by fluorescence polarization. Values recorded in wells with added inhibitor were normalized to values read in control wells and plotted against the concentration of tested inhibitor. Drugs were assayed in triplicate. All compounds were used as DMSO stocks. Points, mean; bars, s.d. d) Growth inhibition: SKBr3 cells were incubated in triplicate with increasing concentrations of compound and growth over 72 h was assessed. Y-axis values below 0% represent cell death of the starting population. HER2 degradation was analyzed as in panel a), and gels were quantified by densitometry. Recorded values were normalized to control (vehicle only treated cells) and data graphed against YK5 concentration. Error bars represent the s.d. of the mean (n=3).
FIG. 8. […] Points, mean; bars, s.d. Yaxis values below 0% represent cell death of the starting population. c) Streptavidin beads (50 μl) were incubated with the indicated concentrations of YK55, YK56 or D-biotin to immobilize the corresponding compounds on beads. Beads (50 μl) were probed with SKBr3 cell extracts (500 μg), and the precipitated Hsp70 analyzed by western blot and quantified by […]. Results from three independent experiments were graphed to determine the relative binding affinity of YKs. Points, mean; bars, s.d. d) Structure of representative YKs. YK55 and YK56 are the biotinylated derivatives of YK54 and YK57, respectively.
FIG. 9. […] Cells were treated for 24 h with the indicated concentrations of YK149 and YK5. Cells were lysed and proteins analyzed by western blotting. b) Examples of the compounds of the present subject matter inhibit the activity of the oncogenic STAT3 in the triple-negative breast cancer cells MDA-MB-468. Cells were treated for the indicated times with compounds or vehicle and proteins analyzed by western blot. (c) Examples of the compounds of the present subject matter dose-dependently induce apoptosis in the acute myeloid leukemia cells MOLM13. Cells were treated for 24 h with the indicated concentration of compounds and the increase in caspase3,7 activity was measured and compared to only vehicle (DMSO) treated cells. Caspase-3,7 activity was a measure of compound potency in cleaving the caspase substrate Z-DEVD-R110 and releasing rhodamine. The percentage increase in apoptotic cells was calculated by comparing the fluorescence readings obtained from compounds with those obtained from vehicle (DMSO)-treated cells.
Western Blotting. Cells were grown to 60-70% confluence and treated with inhibitor or DMSO vehicle for the indicated times. Protein lysates were prepared in 50 mM Tris pH 7.4, 150 mM NaCl and 1% NP-40 lysis buffer. Protein concentrations were measured using the BCA kit (Pierce) according to the manufacturer's instructions. […]

[2] = tested on: Kasumi-1 acute myeloid leukemia cells; experiment: Growth Inhibition Assay (Alamar blue), Kasumi-1; conditions: Kasumi-1 cells
Description: (§1) The IC50 values listed for some of these compounds illustrate the antiproliferative effects of the subject compounds and were obtained using the Growth Inhibition assays described herein.
(§2) Growth Inhibition Assay. Antiproliferative effects of inhibitors were evaluated using the dye Alamar blue. This reagent offers a rapid objective measure of cell viability in cell culture, and it uses the indicator dye resazurin to measure the metabolic capacity of cells, an indicator of cell viability. Briefly, cells were plated on Costar 96-well plates. For attached cells (such as SKBr3, MDA-MB-468, LNCaP, MRCS), 8,000 cells/well were used. For suspension cells (such as MOLM-13, Kasumi-1, OCI-Ly7, PBL), 20,000 cells/well were plated. Cells were allowed to incubate for 24 h at 37° C. before drug treatment. Drugs were added in triplicates at the indicated concentrations, and the plate was incubated for 72 h. Alamar Blue (440 μM) was added, and the plate read 6 h later using the Analyst GT (Fluorescence intensity mode, excitation 530 nm, emission 580 nm, with 560=dichroic mirror). Results were analyzed using the Softmax Pro software. The percentage cell growth inhibition was calculated by comparing fluorescence readings obtained from treated versus control cells, accounting for initial cell population (time zero).

Kasumi-1 cells = experiment: Apoptosis, acridine orange/ethidium bromide, Kasumi-1; conditions: 10 μM, 24 h
Description: FIG. 13. YK5 has a higher apoptotic effect than Hsp90 inhibitors in select tumors. (a-d) Cells were treated with the indicated concentrations of inhibitors for the times presented. (a,b) Apoptotic cells were quantified by dual acridine orange/ethidium bromide staining as described in Methods. (c,d) Molecular markers of apoptosis (PARP cleavage) were analyzed in cells treated for 24 h with indicated concentrations of inhibitors (c) or for the indicated times with the indicated concentration of inhibitors (d) by western blotting. (e) MDAMB-468 cells were treated with vehicle, TNFα (20 ng/ml), YK5 (1 μM), pretreated with YK5 for 2 h before TNFα or co-treated, and cells were lysed for western blot analysis (left), or cell death was quantified by analyzing the hypodiploid population upon propidium iodine staining (right). […]
To determine whether cell death by YK5 was attributable to apoptosis, cells were treated with YK5 and effects on morphology, as well as on several effectors and mediators of apoptosis were analyzed (FIG. 13). To quantify the number of cells undergoing apoptosis, cells were stained with acridine orange/ethidium bromide (AO/EB) and analyzed under a fluorescence microscope for the percentage of viable, apoptotic (early and late) and necrotic cells. […]
Apoptosis-Acridine Orange/Ethidium Bromide. […] Percentage of apoptotic cells was determined from 200-300 cells counted in each group.

[3] = tested on: MDA-MB-468, SKBr3, LNCaP, MOLM-13, Kasumi-1, OCI-Ly7 and HuH7 cells; experiment: Growth inhibition in a panel of cancer cells; conditions: growth over 72 h
Description: Tested were MDA-MB-468 triple-negative breast cancer cells, SKBr3 HER2+breast cancer cells, LNCaP mAR+prostate cancer cells, MOLM-13 and Kasumi-1 acute myeloid leukemia cells, OCI-Ly7 diffuse large B-cell lymphoma cells and HuH7 hepatocellular carcinoma cells. […] In cancer cells, half growth inhibitory concentrations ([…]) recorded for YK5 were in high agreement with its potency to degrade Hsp90 onco-clients.
as §2

[4] = tested on: SKBr3 HER2+ breast cancer cells; experiment: Growth Inhibition Assay (Alamar blue), SKBr3; conditions: Homo sapiens, SK-BR-3, 72 h
Description: as §1, §2

| IC50 ([2]; Homo sapiens, Kasumi 1, 72 h) | IC50 [4] | Structure (SMILES) | further results |
| --- | --- | --- | --- |
| 13.9 µM | – | COc1nc(N2CCN(C)CC2)nc(OC)c1Sc1cccc(NC(=O)CN)c1 [YK149, 2-amino-N-(3-(4,6-dimethoxy-2-(4-methylpiperazin-1-yl)pyrimidin-5-ylthio)phenyl)acetamide] | degradation of Hsp90 onco-client proteins (HER2, Raf-1, Akt) ([1]; SKBr3 cells, 24 h, western blot): dose-dependently reduce the steady-state levels of HER2 and Raf-1; IC50 ([2]; 72 h): 21 µM |
| 34.1 µM | – | CCOc1nc(N2CCN(C)CC2)nc(OCC)c1Sc1nc(N)cc(NC(=O)CC)n1 [YK31, N-(6-amino-2-(4,6-diethoxy-2-(4-methylpiperazin-1-yl)pyrimidin-5-ylthio)pyrimidin-4-yl)propionamide] | lowering of biological activity, ethylamide versus acrylamide YK30 ([1]; FIG. 8a, relative to YK30): 30 fold |
| – | – | C#CCCCn1c(Cc2cc(OC)c(OC)c(OC)c2Cl)nc2c(N)nc(F)nc21 [PU24FCl, reference compound] | cells undergoing apoptosis (Kasumi-1 cells): 9%; feed-back induction of Hsp70 (heat shock response) ([1]; SKBr3 cells, 24 h): potently activated a heat shock response; growth of all tested cancer cells [3]: inhibited the growth of all tested cancer cells |
| – | – | CC(C)NCCCn1c(Sc2cc3c(cc2I)OCO3)nc2c(N)ncnc21 [PU-H71, reference compound] | feed-back induction of Hsp70 (heat shock response) ([1]; SKBr3 cells, 24 h): potently activated a heat shock response; growth of all tested cancer cells [3]: inhibited the growth of all tested cancer cells |
| 26.2 µM | 44.4 µM | CCC(=O)Nc1ccnc(Sc2c(C)nc(N3CCN(C)CC3)nc2C)n1 [YK86, N-(2-(4,6-dimethyl-2-(4-methylpiperazin-1-yl)pyrimidin-5-ylthio)pyrimidin-4-yl)propionamide] | – |
| 79.7 µM | > 100 µM | COc1nc(N2CCOCC2)nc(OC)c1Sc1cccc(N)c1 [PDP2, 3-(4,6-dimethoxy-2-morpholinopyrimidin-5-ylthio)aniline] | – |
| > 100 µM | 99.5 µM | CCC(=O)Nc1ccnc(Sc2c(OC)nc(N3CCCC3)nc2OC)n1 [YK106, N-(2-(4,6-dimethoxy-2-(pyrrolidin-1-yl)pyrimidin-5-ylthio)pyrimidin-4-yl)propionamide] | – |
| 8.9 µM | 7.7 µM | COc1nc(N2CCN(C)CC2)nc(OC)c1Sc1cccc(NC(=O)C2CC2)c1 [YK139, N-(3-(4,6-dimethoxy-2-(4-methylpiperazin-1-yl)pyrimidin-5-ylthio)phenyl)cyclopropanecarboxamide] | IC50 ([2]; 72 h): 7.9 µM |
| 12 µM | 6.8 µM | Cc1nc(N2CCN(C)CC2)nc(C)c1Sc1nccc(NC(=O)c2ccco2)n1 [YK89, N-(2-(4,6-dimethyl-2-(4-methylpiperazin-1-yl)pyrimidin-5-ylthio)pyrimidin-4-yl)furan-2-carboxamide] | IC50 ([2]; 72 h): 7.5 µM |
| 62.3 µM | 79.2 µM | CCC(=O)Nc1ccnc(Sc2c(OC)nc(OC)nc2OC)n1 [YK77, N-(2-(2,4,6-trimethoxypyrimidin-5-ylthio)pyrimidin-4-yl)propionamide] | – |
| 6.2 µM | 14.4 µM | C=CC(=O)Nc1ccnc(Sc2c(C)nc(N3CCOCC3)nc2C)n1 [YK117, N-(2-(4,6-dimethyl-2-morpholinopyrimidin-5-ylthio)pyrimidin-4-yl)acrylamide] | – |
